One experiment concerns the target T1, recombinant human mGlu4a receptor (Homo sapiens, UniProt Q14833).
T1 construct: expressed in transfected cells
As to the kind of experiment: mGluR4 assay on T-Rex-293 cell line; cyclic AMP level by HTRF in the presence of forskolin and glutamate. The class given is cell-based. As to conditions: EC50 for potentiation of glutamate response; forskolin 10 uM; mean of at least three independent experiments in duplicates. From the text: mGluR4 assay on T-Rex™-293 Cell line - expressing recombinant human mGlu4 receptor.
The compounds of the present invention are positive allosteric modulator of III group of metabotropic glutamate receptors, subtype 4. Their activity was examined on recombinant human mGlu4a receptor by detecting level of cyclic AMP in the presence of forskolin, adenylyl cyclase activator. The positive allosteric modulators provided in the present invention are expected to increase the functional activity and/or maximal efficacy of glutamate or other orthosteric agonists at mGluR4 receptor.
Plazmid construct. The cDNA fragment encoding human metabotropic receptor 4, variant 1 (accession number: NM_000841, NCBI Nucleotide Database) was cloned into the BamHI/NotI sites of pcDNA5/FRT/TO vector, under the control of a tetracycline regulated promoter (Invitrogen, Poland).
Cell culture and transfection. HEK293 cell line containing an inducible expression system (Flp-In T-Rex 293 cell line, Invitrogen, Poland) was maintained in Dulbecco's modified Eagle's medium supplemented with 10% fetal bovine serum, 2mM L-Glutamine (supplemented DMEM, LONZA, Poland), blastycidin and zeocin. T-Rex 293 cells were transfected with mixture of pTet-hmGluR4 and pOG44 (Invitrogen, Poland) plazmids and GeneJuice transfection reagent (Merck Millipore, Poland) according to the manufacturer's instructions. Cells were grown in supplemented DMEM with hygromycin B (75µg/ml) allowed selection of cells with stably integrated one copy of pTet-hmGluR4 plazmid. Expression of mGluR4 is induced by Tetracycline treatment.
Cell preparation before assay. Stable transfected cells were grown to 60% confluency with supplemented DMEM. Two days before experiment mGluR4 expression was induced by adding tetracycline in concentration 0,75µg/ml. 40h before experiment cells were incubated in a L-Glutamine free medium.
Cyclic AMP measurement. cAMP was measured quantitatively by cAMP dynamic 2 (Cisbio Biossays, France) according to manufacture instructions. cAMP dynamic 2 assay (Cisbio Biossays, France) is method based on homogenous time-resolved fluorescence. cAMP dynamic 2 is a competitive immunoassay between native cAMP produced by cells and the cyclic AMP labeled with, a fluorescence dye. The tracer binding is visualized by antibody anti - cAMP labeled with Eu^3+ cryptate. The specific signal is inversely proportional to the concentration of cAMP in the sample.
Incubation of cells with all compounds was performed in 96 well plates. Each well were supplement with HHB containing 130 mM NaCl, 5,4 mM KCl, 1,8 mM CaCl2, 0,8 mM MgSO4, 0,9 mM NaH2PO4, 25 mM glucose and 20 mM HEPES, pH 7.4 with or without glutamate and with or without tested compound and forskolin (10 uM final concentration) in total volume of 50 ul. Assay was started by adding 50 ul of HHB buffer with cells to each well. Assay was performed in 37° C. After 5 min of incubation 10 ul of suspension containing 2000 cells were transferred to white 384 well plates (784080, Greiner bio-one) containing of 5 ul of cAMP-d2 conjugate in lysis buffer (cAMP dynamic 2, Cisbio Bioassays, France) in each well. Than was added 5 ul of cryptate conjugate in lysis buffer (cAMP dynamic 2, Cisbio Bioassays, France). After 1 h incubation in room temperature the fluorescence intensity of the assay plate were measured at 314 nm excitation, and 620 nm and 665 nm emission in Infinite M1000 (Tecan) microplate reader. Data were expressed as the ratio of 665 nm/620 nm. All liquid handling operations were performed using EVO 2000 system (Tecan, Switzerland).
Potentiation of the glutamate response of mGluR4 receptor by the invented compounds was observed as a decrease of EC50 value for the glutamate in the presence of these molecules in the compare of EC50 value in the absence of compounds. A decrease in the EC50 for glutamate in the presence of tested compound was an indicator of degree of mGluR4 positive allosteric modulation at a given concentration of the sample compound. […]
T1 sequence (Q14833 33-912): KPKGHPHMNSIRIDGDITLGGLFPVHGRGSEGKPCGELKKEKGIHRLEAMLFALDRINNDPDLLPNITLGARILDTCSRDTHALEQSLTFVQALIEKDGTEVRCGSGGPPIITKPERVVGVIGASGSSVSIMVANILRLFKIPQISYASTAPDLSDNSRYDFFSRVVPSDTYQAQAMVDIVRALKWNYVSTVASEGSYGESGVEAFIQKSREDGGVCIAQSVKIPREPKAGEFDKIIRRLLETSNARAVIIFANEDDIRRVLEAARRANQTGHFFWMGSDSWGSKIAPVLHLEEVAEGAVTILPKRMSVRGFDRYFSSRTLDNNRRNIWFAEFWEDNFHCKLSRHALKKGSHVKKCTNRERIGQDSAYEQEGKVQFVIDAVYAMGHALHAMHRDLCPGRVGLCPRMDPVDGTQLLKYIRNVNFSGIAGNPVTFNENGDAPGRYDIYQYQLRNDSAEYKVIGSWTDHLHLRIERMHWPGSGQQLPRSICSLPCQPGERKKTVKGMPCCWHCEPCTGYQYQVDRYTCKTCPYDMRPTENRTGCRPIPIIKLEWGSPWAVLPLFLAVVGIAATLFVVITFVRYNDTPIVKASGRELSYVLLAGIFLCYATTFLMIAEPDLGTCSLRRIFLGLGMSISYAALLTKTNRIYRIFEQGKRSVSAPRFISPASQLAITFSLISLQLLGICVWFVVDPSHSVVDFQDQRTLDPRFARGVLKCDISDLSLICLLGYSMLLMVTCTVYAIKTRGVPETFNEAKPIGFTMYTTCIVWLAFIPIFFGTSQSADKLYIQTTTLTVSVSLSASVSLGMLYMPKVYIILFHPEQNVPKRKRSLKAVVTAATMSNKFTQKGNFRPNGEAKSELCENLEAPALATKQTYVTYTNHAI
Sequence of mGluR1 (Q13255 19-1194): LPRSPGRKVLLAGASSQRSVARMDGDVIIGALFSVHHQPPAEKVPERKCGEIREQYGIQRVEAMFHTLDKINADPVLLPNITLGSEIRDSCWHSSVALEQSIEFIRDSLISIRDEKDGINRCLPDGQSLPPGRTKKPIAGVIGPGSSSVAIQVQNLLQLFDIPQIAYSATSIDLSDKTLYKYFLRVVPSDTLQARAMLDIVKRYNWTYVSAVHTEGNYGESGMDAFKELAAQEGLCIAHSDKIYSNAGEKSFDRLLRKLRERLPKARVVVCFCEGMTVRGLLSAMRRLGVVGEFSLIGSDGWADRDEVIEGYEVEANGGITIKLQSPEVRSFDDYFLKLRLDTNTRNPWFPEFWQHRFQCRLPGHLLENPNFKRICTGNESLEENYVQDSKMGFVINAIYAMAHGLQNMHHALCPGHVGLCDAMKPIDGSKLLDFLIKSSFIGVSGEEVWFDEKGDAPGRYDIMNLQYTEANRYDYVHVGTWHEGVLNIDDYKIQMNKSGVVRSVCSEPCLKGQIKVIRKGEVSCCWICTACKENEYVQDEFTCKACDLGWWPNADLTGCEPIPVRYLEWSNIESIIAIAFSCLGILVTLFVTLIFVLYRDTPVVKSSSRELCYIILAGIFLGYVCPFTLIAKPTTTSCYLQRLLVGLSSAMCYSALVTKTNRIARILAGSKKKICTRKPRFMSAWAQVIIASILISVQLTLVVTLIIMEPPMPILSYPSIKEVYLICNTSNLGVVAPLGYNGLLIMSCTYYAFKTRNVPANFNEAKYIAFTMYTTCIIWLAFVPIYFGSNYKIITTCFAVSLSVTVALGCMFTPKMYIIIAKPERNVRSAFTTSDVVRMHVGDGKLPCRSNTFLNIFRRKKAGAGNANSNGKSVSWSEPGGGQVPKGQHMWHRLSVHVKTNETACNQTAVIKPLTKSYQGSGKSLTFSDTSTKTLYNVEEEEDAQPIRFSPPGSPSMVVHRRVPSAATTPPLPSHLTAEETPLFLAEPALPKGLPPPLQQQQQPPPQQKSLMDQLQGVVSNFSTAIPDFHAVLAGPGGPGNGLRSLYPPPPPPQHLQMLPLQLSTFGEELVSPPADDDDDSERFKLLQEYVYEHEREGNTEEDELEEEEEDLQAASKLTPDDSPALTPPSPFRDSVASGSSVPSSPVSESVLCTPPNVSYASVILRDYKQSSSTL
On to `COc1ccc(C(=O)Nc2ccc(-c3nc(-c4ccccc4)no3)cc2)cc1` [Example 49, 4-methoxy-N-[4-(3-phenyl-1,2,4-oxadiazol-5-yl)phenyl]benzamide], for which the EC50 is < 300 nM.

Turning to `Cc1cc(NC(=O)c2ccccn2)ccc1-c1noc(-c2ccccc2)n1` [Example 30, N-[3-methyl-4-(5-phenyl-1,2,4-oxadiazol-3-yl)phenyl]pyridine-2-carboxamide], the concentration for a half-maximal effect (EC50) was < 300 nM.

For the molecule `O=C(Nc1ccc(-c2noc(-c3ccccc3)n2)c(C(F)(F)F)c1)c1ccccn1` [Example 28], the EC50 was < 300 nM.

On to `COc1ccccc1-c1nc(-c2ccc(NC(=O)c3ccccn3)cc2F)no1` [Example 27, N-{4-[5-(2-methoxyphenyl)-1,2,4-oxadiazol-3-yl]-3-fluorophenyl}pyridine-2-carboxamide], for which the half-maximal effective concentration (EC50) is < 300 nM.

Staying with this experiment, now noted: T-REx-293; percent of mGluR4 activity with tested compound and glutamate at maximally activating concentration (100%); mean of at least three independent experiments; read-out: % Glu Max.
Regarding `O=C(Nc1ccc(-c2nc(-c3ccccc3)no2)cc1)c1ccc([N+](=O)[O-])cc1` [Example 50, 4-nitro-N-[4-(3-phenyl-1,2,4-oxadiazol-5-yl)phenyl]benzamide], the Emax was 105 to 135%.

Regarding `COc1cc(NC(=O)c2ccccn2)ccc1-c1noc(-c2ccc(F)cc2Cl)n1` [Example 19, N-{4-[5-(2-chloro-4-fluorophenyl)-1,2,4-oxadiazol-3-yl]-3-methoxyphenyl} pyridine-2-carboxamide], the Emax fell in the range of 99.2 to 119%.

On to `COc1ccc(C(=O)Nc2ccc(-c3nc(-c4ccccc4)no3)cc2)cc1` [Example 49, 4-methoxy-N-[4-(3-phenyl-1,2,4-oxadiazol-5-yl)phenyl]benzamide], for which the Emax lay in the range of 105 to 118%.

Regarding `O=C(Nc1ccc(-c2noc(-c3ccccc3Cl)n2)c(C(F)(F)F)c1)c1ccccn1` [Example 29, N-{4-[5-(2-chlorophenyl)-1,2,4-oxadiazol-3-yl]-3-(trifluoromethyl)phenyl} pyridine-2-carboxamide], the Emax lay within 99.2 to 119%.

Take `O=C(Nc1ccc(-c2nc(-c3ccccc3)no2)cc1)c1ccccc1` [Example 47, N-[4-(3-phenyl-1,2,4-oxadiazol-5-yl)phenyl]benzamide]: the Emax lay within 99.2 to 119%.

Turning to `COc1cc(NC(=O)c2cccc(F)n2)ccc1-c1noc(-c2ccccc2F)n1` [Example 40, 6-fluoro-N-{4-[5-(2-fluorophenyl)-1,2,4-oxadiazol-3-yl]-3-methoxyphenyl} pyridine-2-carboxamide], the Emax was in the range of 105 to 135%.

Regarding `O=C(Nc1ccc(-c2noc(-c3ccc(F)cc3Cl)n2)c(F)c1)c1ccccn1` [Example 26, N-{4-[5-(2-chloro-4-fluorophenyl)-1,2,4-oxadiazol-3-yl]-3-fluorophenyl} pyridine-2-carboxamide], the Emax is 105 to 135%.

Turning to `COc1cc(NC(=O)c2cccc(Cl)n2)ccc1-c1noc(-c2ccccc2Cl)n1` [Example 34, 6-chloro-N-{4-[5-(2-chlorophenyl)-1,2,4-oxadiazol-3-yl]-3-methoxyphenyl}pyridine-2-carboxamide], the Emax is 99.2 to 119%.

On to `COc1cc(NC(=O)c2ccncn2)ccc1-c1noc(-c2ccccc2Cl)n1` [Example 38, N-{4-[5-(2-chlorophenyl)-1,2,4-oxadiazol-3-yl]-3-methoxyphenyl} pyrimidine-4-carboxamide], for which the Emax lay within 105 to 135%.

Turning to `Cc1cc(NC(=O)c2ccccn2)ccc1-c1noc(-c2ccccc2)n1` [Example 30, N-[3-methyl-4-(5-phenyl-1,2,4-oxadiazol-3-yl)phenyl]pyridine-2-carboxamide], the Emax lay in the range of 105 to 118%.

Consider `O=C(Nc1ccc(-c2noc(-c3ccccc3Cl)n2)c(Cl)c1)c1cccc(F)n1` [Example 42], for which the Emax was 99.2 to 119%.

Take `COc1cc(NC(=O)c2cccc(F)n2)ccc1-c1noc(-c2ccccc2Cl)n1` [Example 32, N-{4-[5-(2-chlorophenyl)-1,2,4-oxadiazol-3-yl]-3-methoxyphenyl}-6-fluoropyridine-2-carboxamide]: the Emax was in the range of 99.2 to 119%.

As for `COc1cc(NC(=O)c2nc(Cl)ccc2Cl)ccc1-c1noc(-c2ccccc2F)n1` [Example 41, 3,6-dichloro-N-{4-[5-(2-fluorophenyl)-1,2,4-oxadiazol-3-yl]-3-methoxyphenyl}pyridine-2-carboxamide], the Emax lay within 99.2 to 119%.

For `COc1cc(NC(=O)c2ccccn2)ccc1-c1noc(-c2ccccc2Cl)n1` [Example 17, N-{4-[5-(2-chlorophenyl)-1,2,4-oxadiazol-3-yl]-3-methoxyphenyl}pyridine-2-carboxamide], the Emax lay in the range of 99.2 to 119%.

Regarding `O=C(Nc1ccc(-c2noc(-c3ccccc3)n2)c(C(F)(F)F)c1)c1ccccn1` [Example 28], the Emax lay within 105 to 118%.

As for `O=S(=O)(Nc1ccccc1Cl)c1ccc(-c2noc(-c3ccccc3)n2)cc1` [Example 44, N-(2-chlorophenyl)-4-(5-phenyl-1,2,4-oxadiazol-3-yl)benzene-1-sulfonamide], the Emax was 99.2 to 119%.

`O=C(Nc1ccc(-c2noc(-c3ccc(F)cc3Cl)n2)c(Cl)c1)c1ccccn1` [Example 22, N-{3-chloro-4-[5-(2-chloro-4-fluorophenyl)-1,2,4-oxadiazol-3-yl]phenyl}pyridine-2-carboxamide]: the Emax fell in the range of 99.2 to 119%.

Take `Cc1cc(NC(=O)c2ccccn2)ccc1-c1noc(-c2ccccc2Cl)n1` [Example 31, N-{4-[5-(2-chlorophenyl)-1,2,4-oxadiazol-3-yl]-3-methylphenyl}pyridine-2-carboxamide]: the Emax was in the range of 105 to 135%.

For `O=S(=O)(Nc1ccc(F)cc1F)c1ccc(-c2noc(-c3ccccn3)n2)cc1` [Example 46, N-(2,4-difluorophenyl)-4-[5-(pyridin-2-yl)-1,2,4-oxadiazol-3-yl]benzene-1-sulfonamide], the Emax fell in the range of 99.2 to 119%.

As to `COc1ccccc1-c1nc(-c2ccc(NC(=O)c3ccccn3)cc2F)no1` [Example 27, N-{4-[5-(2-methoxyphenyl)-1,2,4-oxadiazol-3-yl]-3-fluorophenyl}pyridine-2-carboxamide], the Emax was 105 to 118%.

Take `Cn1cccc1C(=O)Nc1ccc(-c2nc(-c3ccccc3)no2)cc1` [Example 54, 1-methyl-N-[4-(3-phenyl-1,2,4-oxadiazol-5-yl)phenyl]-1H-pyrrole-2-carboxamide]: the Emax lay in the range of 99.2 to 119%.

In the case of `O=C(Nc1ccc(-c2nc(-c3ccccc3)no2)cc1)c1cccc(Cl)c1` [Example 48, 3-chloro-N-[4-(3-phenyl-1,2,4-oxadiazol-5-yl)phenyl]benzamide], the Emax is 99.2 to 119%.

For the molecule `COc1ccc(-c2nc(-c3ccc(NC(=O)c4ccncc4)cc3)no2)cc1` [Example 6, N-{4-[5-(4-methoxyphenyl)-1,2,4-oxadiazol-3-yl]phenyl}pyridine-4-carboxamide], the Emax was 105 to 135%.

On to `COc1cc(NC(=O)c2ncc(Cl)cc2F)ccc1-c1noc(-c2ccccc2Cl)n1` [Example 33, 5-chloro-N-{4-[5-(2-chlorophenyl)-1,2,4-oxadiazol-3-yl]-3-methoxyphenyl}-3-fluoropyridine-2-carboxamide], for which the Emax lay in the range of 99.2 to 119%.

For another experiment, the target named is mGluR8 (Homo sapiens, UniProt O00222).
Sequence of mGluR8 (O00222 34-908, species assumed): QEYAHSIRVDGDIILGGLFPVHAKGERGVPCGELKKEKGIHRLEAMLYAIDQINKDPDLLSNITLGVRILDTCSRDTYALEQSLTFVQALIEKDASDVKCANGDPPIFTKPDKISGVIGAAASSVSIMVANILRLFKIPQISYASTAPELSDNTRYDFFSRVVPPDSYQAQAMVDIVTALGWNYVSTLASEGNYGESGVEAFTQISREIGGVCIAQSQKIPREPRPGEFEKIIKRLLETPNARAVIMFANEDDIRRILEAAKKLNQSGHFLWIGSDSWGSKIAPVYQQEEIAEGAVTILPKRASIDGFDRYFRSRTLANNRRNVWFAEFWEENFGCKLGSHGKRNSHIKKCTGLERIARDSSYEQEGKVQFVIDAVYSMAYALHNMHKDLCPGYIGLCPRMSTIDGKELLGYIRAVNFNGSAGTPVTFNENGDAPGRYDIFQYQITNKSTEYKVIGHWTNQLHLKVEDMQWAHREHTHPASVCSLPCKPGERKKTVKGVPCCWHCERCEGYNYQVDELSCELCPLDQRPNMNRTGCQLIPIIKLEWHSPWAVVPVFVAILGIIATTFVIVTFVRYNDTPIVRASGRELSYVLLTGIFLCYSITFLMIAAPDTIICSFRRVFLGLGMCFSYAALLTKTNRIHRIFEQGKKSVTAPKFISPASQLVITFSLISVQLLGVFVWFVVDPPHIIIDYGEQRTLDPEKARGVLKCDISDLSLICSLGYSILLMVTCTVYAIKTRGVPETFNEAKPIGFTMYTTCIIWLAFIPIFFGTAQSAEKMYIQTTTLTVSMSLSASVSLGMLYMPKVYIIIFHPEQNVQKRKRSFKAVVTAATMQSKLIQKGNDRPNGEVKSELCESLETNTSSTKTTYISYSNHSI
Test: not given
As to conditions: cited from earlier work.
Regarding `N[C@H](C(=O)O)c1ccc(C(=O)O)c(C(=O)O)c1` [(S)-3,4-DCPG], the “selectivity for mGluR8 over mGluR4” value is 100 fold.

The next experiment concerns the target mGluR1 (Homo sapiens, UniProt Q13255).
Test: not given
As to conditions: cited from earlier work.
Consider `O=C(Nc1ccccc1)C12CC1C(=NO)c1ccccc1O2` (single isomer, unassigned; (-)) [(-)PHCCC, N-phenyl-7-(hydroxyimino)cyclopropan[b]chromen-1a-carboxamide], for which the “partial antagonist of mGluR1” value is listed as 30%.

Source of the values: EP2853532B1, “1,2,4-oxadiazole derivatives as allosteric modulators of metabotropic glutamate receptors belonging to group III” (Instytut Farmakologii Polskiej Akademii Nauk, priority 2013, dated 2015).
